Assay results: US9079866B2, “Flap modulators” (JANSSEN PHARMACEUTICA NV, priority 2013, dated 2015)

Assays:
[1] = system: leukotriene pathway in human whole blood (LTB4 levels); assay: Human whole blood assay (A23187-stimulated LTB4); type: cell-based; conditions: Homo sapiens, human whole blood diluted 1:1, A23187-stimulated; read-out: LTB4 IC50 1:1
How it was run: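 Blood (heparin) diluted 1:1 RPMI; compound pre-incubation 15 min, 37° Celsius; A23187 7 μg/mL, 30 min, 37° Celsius; plasma LTB4 by commercial kit. IC50 via 4-parameter equation.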

human FLAP = human FLAP (Homo sapiens (Human), UniProt P20292); assay: FLAP binding assay (HTRF format); conditions: wild type FLAP, HTRF format
How it was run: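 Reported data take the mean of two different plates carrying duplicate samples and use the HTRF ratio as the measured signal.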

Sequence of human FLAP (P20292 whole entry): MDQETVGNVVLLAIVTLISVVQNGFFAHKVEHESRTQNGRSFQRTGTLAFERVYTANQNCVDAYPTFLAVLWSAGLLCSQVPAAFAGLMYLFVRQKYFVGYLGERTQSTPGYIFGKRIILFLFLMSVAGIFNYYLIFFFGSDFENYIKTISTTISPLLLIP

IC50 [1] [µM]	Ki (human FLAP) [µM]	SMILES
0.538	0.158	CC(C)Oc1ncccc1-c1ccc(-c2cnc(N)cn2)c(F)c1 [Example 401, 5-{2-Fluoro-4-[2-(1-methylethoxy)pyridin-3-yl]phenyl}pyrazin-2-amine]
0.522	0.092	Nc1cnc(-c2ccc(-c3cccnc3OC3CCCC3)cc2F)cn1 [Example 402, 5-{4-[2-(Cyclopentyloxy)pyridin-3-yl]-2-fluorophenyl}pyrazin-2-amine]
1.49	0.155	COc1ncccc1-c1ccc(-c2cnc(N)cn2)c(F)c1 [Example 404, 5-[2-Fluoro-4-(2-methoxypyridin-3-yl)phenyl]pyrazin-2-amine]
2.71	0.1	Nc1cnc(-c2ccc(-c3cccnc3OC3CCC3)cc2F)cn1 [Example 405, 5-{4-[2-(Cyclobutyloxy)pyridin-3-yl]-2-fluorophenyl}pyrazin-2-amine]
4.31	0.135	CC(C)(C)OC(=O)N1CCC(COc2ncccc2-c2ccc(-c3cnc(N)cn3)c(F)c2)C1 (stereo not drawn) [Example 406, tert-Butyl 3-[({3-[4-(5-aminopyrazin-2-yl)-3-fluorophenyl]pyridin-2-yl}oxy)methyl]pyrrolidine-1-carboxylate]
1.14	0.128	CC(C)Oc1ncccc1-c1ccc(-c2cnc(N)nc2)c(F)c1 [Example 408, 5-{2-Fluoro-4-[2-(1-methylethoxy)pyridin-3-yl]phenyl}pyrimidin-2-amine]
1.97	0.036	N#Cc1nc(-c2ccc(-c3ccccc3S(=O)(=O)C3CC3)cc2F)cnc1N [Example 411, 3-Amino-6-[2′-(cyclopropylsulfonyl)-3-fluorobiphenyl-4-yl]pyrazine-2-carbonitrile]
0.726	0.108	CC(C)(C)NS(=O)(=O)c1ccccc1-c1ccc(-c2ccc(N)nn2)c(F)c1 [Example 417, 4′-(6-Aminopyridazin-3-yl)-N-tert-butyl-3′-fluorobiphenyl-2-sulfonamide]
3.28	0.086	CC(C)(C)NS(=O)(=O)c1ccccc1-c1ccc(-c2ccc3nccnc3c2)c(F)c1 [Example 420, N-tert-Butyl-3′-fluoro-4′-quinoxalin-6-ylbiphenyl-2-sulfonamide]
0.146	0.003	CC(C)(C)NS(=O)(=O)c1ccccc1-c1ccc(-c2ccc3[nH]cnc3c2)c(F)c1 [Example 422, 4′-(1H-Benzimidazol-5-yl)-N-tert-butyl-3′-fluorobiphenyl-2-sulfonamide]
4.79	0.284	CNS(=O)(=O)c1ccccc1-c1ccc(-c2ccc3[nH]cnc3c2)c(F)c1 [Example 423, 4′-(1H-Benzimidazol-5-yl)-3′-fluoro-N-methylbiphenyl-2-sulfonamide]
> 10	0.01	CC(C)(C)NS(=O)(=O)c1ccccc1-c1ccc(-c2ccc3scnc3c2)c(F)c1 [Example 424, 4′-(1,3-Benzothiazol-5-yl)-N-tert-butyl-3′-fluorobiphenyl-2-sulfonamide]
0.111	0.002	CC(C)(C)NS(=O)(=O)c1ccccc1-c1ccc(-c2cnc3cc[nH]c3c2)c(F)c1 [Example 425, N-tert-Butyl-3′-fluoro-4′-(1H-pyrrolo[3,2-b]pyridin-6-yl)biphenyl-2-sulfonamide]
0.073	0.002	CNS(=O)(=O)c1ccccc1-c1ccc(-c2cnc3[nH]ccc3c2)c(F)c1 [Example 426, 3′-Fluoro-N-methyl-4′-(1H-pyrrolo[2,3-b]pyridin-5-yl)biphenyl-2-sulfonamide]
1.6	0.054	CC(C)(C)NS(=O)(=O)c1ccccc1-c1ccc(-c2ccc(N)cn2)c(F)c1 [Example 427, 4′-(5-Aminopyridin-2-yl)-N-tert-butyl-3′-fluorobiphenyl-2-sulfonamide]
0.004	0.004	CC(C)(C)NS(=O)(=O)c1ccccc1-c1ccc(-c2cnc(N)c(N)n2)c(F)c1 [Example 428, N-tert-Butyl-4′-(5,6-diaminopyrazin-2-yl)-3′-fluorobiphenyl-2-sulfonamide]
0.209	0.013	CC(C)(C)NS(=O)(=O)c1ccccc1-c1ccc(-c2cnc3[nH]c(=O)[nH]c3n2)c(F)c1 [Example 429, N-tert-Butyl-3′-fluoro-4′-(2-oxo-2,3-dihydro-1H-imidazo[4,5-b]pyrazin-5-yl)biphenyl-2-sulfonamide]
0.009	0.001	CC(C)(C)NS(=O)(=O)c1ccccc1-c1ccc(-c2cnc3c(c2)CCN3)c(F)c1 [Example 431, N-tert-Butyl-4′-(2,3-dihydro-1H-pyrrolo[2,3-b]pyridin-5-yl)-3′-fluorobiphenyl-2-sulfonamide]
0.019	0.004	CC(C)(C)NS(=O)(=O)c1ccccc1-c1ccc(-c2cnc3[nH]cnc3c2)c(F)c1 [Example 432, N-tert-Butyl-3′-fluoro-4′-(3H-imidazo[4,5-b]pyridin-6-yl)biphenyl-2-sulfonamide]
0.025	0.001	COc1nc(-c2ccc(-c3ccccc3S(=O)(=O)NC(C)(C)C)cc2F)cnc1N [Example 433, 4′-(5-Amino-6-methoxypyrazin-2-yl)-N-tert-butyl-3′-fluorobiphenyl-2-sulfonamide]
0.036	0.001	CC(C)(C)NS(=O)(=O)c1ccccc1-c1ccc(-c2cnc(N)c(C#N)n2)c(F)c1 [Example 434, 4′-(5-Amino-6-cyanopyrazin-2-yl)-N-tert-butyl-3′-fluorobiphenyl-2-sulfonamide]
0.166	0.009	CC(C)(C)NS(=O)(=O)c1ccccc1-c1ccc(-c2ncc(N)nc2C#N)c(F)c1 [Example 435, 4′-(5-Amino-3-cyanopyrazin-2-yl)-N-tert-butyl-3′-fluorobiphenyl-2-sulfonamide]
3.28	0.308	CC(C)(C)NS(=O)(=O)c1ccccc1-c1ccc(-c2cnc(N)cc2C#N)c(F)c1 [Example 436, 4′-(6-Amino-4-cyanopyridin-3-yl)-N-tert-butyl-3′-fluorobiphenyl-2-sulfonamide]
0.381	0.023	CC(C)(C)NS(=O)(=O)c1ccccc1-c1ccc(-c2ccc(N)nc2C#N)c(F)c1 [Example 437, 4′-(6-Amino-2-cyanopyridin-3-yl)-N-(tert-butyl)-3′-fluoro-[1,1′-biphenyl]-2-sulfonamide]
0.017	0.001	CC(C)(C)NS(=O)(=O)c1ccccc1-c1ccc(-c2nnc(N)s2)c(F)c1 [Example 438, 4′-(5-Amino-1,3,4-thiadiazol-2-yl)-N-(tert-butyl)-3′-fluoro-[1,1′-biphenyl]-2-sulfonamide]
0.3	0.063	C[C@H](CO)NS(=O)(=O)c1ccccc1-c1ccc(-c2nnc(N)s2)c(F)c1 [Example 439, (R)-4′-(5-Amino-1,3,4-thiadiazol-2-yl)-3′-fluoro-N-(1-hydroxypropan-2-yl)-[1,1′-biphenyl]-2-sulfonamide]
0.215	0.031	Nc1nnc(-c2ccc(-c3ccccc3S(=O)(=O)N3CCS(=O)(=O)CC3)cc2F)s1 [Example 440, 4-((4′-(5-Amino-1,3,4-thiadiazol-2-yl)-3′-fluoro-[1,1′-biphenyl]-2-yl)sulfonyl)thiomorpholine 1,1-dioxide]
